ChEMBL document CHEMBL2074504, “Inhibition of P-glycoprotein-mediated drug transport: A unifying mechanism to explain the interaction between digoxin and quinidine [seecomments]” (Circulation, 1999)

How the values were obtained:
[1] = target: ATP-dependent translocase ABCB1 (Homo sapiens, UniProt P08183); experiment: TP_TRANSPORTER: transepithelial transport (basal to apical) in Caco-2 cells; assay type: functional, cell-based
[2] = target: T1, ATP-dependent translocase ABCB1 (Mus musculus, UniProt P21447); experiment: TP_TRANSPORTER: increase in spleen concentration in mdr1a(-/-) mouse; assay type: functional, organism-based; settings: in vivo
T1 sequence (P21447 whole entry): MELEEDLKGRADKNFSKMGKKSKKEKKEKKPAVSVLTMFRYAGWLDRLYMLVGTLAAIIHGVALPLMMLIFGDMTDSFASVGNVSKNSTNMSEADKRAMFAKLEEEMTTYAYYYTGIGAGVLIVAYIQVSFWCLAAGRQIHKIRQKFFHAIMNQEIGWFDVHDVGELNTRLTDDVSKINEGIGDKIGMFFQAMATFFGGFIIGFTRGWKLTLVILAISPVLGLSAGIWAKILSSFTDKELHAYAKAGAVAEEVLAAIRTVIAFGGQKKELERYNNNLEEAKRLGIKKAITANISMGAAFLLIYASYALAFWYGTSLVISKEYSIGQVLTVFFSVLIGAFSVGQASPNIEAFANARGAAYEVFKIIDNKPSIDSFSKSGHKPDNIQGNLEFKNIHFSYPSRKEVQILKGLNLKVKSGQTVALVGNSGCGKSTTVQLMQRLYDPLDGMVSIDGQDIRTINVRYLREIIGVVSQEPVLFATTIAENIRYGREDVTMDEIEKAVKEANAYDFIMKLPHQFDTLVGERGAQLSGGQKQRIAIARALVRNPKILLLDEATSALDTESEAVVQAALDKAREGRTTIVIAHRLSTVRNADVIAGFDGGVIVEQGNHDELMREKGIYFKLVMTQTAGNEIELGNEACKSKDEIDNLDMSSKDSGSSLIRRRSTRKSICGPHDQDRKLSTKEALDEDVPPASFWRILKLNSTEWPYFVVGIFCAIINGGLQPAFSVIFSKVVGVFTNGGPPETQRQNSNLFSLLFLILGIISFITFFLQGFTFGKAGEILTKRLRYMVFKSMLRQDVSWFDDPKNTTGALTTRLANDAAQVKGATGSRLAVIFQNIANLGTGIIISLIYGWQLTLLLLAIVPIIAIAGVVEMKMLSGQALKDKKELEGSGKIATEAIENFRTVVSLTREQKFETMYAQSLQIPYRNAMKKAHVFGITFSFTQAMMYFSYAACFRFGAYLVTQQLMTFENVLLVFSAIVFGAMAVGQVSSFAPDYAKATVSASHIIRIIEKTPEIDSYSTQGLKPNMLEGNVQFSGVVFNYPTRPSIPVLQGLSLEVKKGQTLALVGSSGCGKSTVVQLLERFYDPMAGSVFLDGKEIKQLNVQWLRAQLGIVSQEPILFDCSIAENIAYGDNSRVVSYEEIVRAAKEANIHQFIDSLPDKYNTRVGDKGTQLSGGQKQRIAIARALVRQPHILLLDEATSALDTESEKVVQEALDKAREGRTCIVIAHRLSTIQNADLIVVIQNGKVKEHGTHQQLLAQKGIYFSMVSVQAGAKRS

[3] = target: T1, ATP-dependent translocase ABCB1; experiment: TP_TRANSPORTER: increase in small intestine concentration in mdr1a(-/-) mouse; assay type: functional, organism-based; settings: in vivo
[4] = target: T1, ATP-dependent translocase ABCB1; experiment: TP_TRANSPORTER: increase in plasma concentration in mdr1a(-/-) mouse; assay type: functional, organism-based; settings: in vivo
[5] = target: T1, ATP-dependent translocase ABCB1; experiment: TP_TRANSPORTER: increase in lung concentration in mdr1a(-/-) mouse; assay type: functional, organism-based; settings: in vivo
[6] = target: T1, ATP-dependent translocase ABCB1; experiment: TP_TRANSPORTER: increase in liver concentration in mdr1a(-/-) mouse; assay type: functional, organism-based; settings: in vivo
[7] = target: T1, ATP-dependent translocase ABCB1; experiment: TP_TRANSPORTER: increase in kidney concentration in mdr1a(-/-) mouse; assay type: functional, organism-based; settings: in vivo
[8] = target: T1, ATP-dependent translocase ABCB1; experiment: TP_TRANSPORTER: increase in brain concentration in mdr1a(-/-) mouse; assay type: functional, organism-based; settings: in vivo

Chain of ATP-dependent translocase ABCB1 (Homo sapiens, UniProt P08183) (P08183 whole entry): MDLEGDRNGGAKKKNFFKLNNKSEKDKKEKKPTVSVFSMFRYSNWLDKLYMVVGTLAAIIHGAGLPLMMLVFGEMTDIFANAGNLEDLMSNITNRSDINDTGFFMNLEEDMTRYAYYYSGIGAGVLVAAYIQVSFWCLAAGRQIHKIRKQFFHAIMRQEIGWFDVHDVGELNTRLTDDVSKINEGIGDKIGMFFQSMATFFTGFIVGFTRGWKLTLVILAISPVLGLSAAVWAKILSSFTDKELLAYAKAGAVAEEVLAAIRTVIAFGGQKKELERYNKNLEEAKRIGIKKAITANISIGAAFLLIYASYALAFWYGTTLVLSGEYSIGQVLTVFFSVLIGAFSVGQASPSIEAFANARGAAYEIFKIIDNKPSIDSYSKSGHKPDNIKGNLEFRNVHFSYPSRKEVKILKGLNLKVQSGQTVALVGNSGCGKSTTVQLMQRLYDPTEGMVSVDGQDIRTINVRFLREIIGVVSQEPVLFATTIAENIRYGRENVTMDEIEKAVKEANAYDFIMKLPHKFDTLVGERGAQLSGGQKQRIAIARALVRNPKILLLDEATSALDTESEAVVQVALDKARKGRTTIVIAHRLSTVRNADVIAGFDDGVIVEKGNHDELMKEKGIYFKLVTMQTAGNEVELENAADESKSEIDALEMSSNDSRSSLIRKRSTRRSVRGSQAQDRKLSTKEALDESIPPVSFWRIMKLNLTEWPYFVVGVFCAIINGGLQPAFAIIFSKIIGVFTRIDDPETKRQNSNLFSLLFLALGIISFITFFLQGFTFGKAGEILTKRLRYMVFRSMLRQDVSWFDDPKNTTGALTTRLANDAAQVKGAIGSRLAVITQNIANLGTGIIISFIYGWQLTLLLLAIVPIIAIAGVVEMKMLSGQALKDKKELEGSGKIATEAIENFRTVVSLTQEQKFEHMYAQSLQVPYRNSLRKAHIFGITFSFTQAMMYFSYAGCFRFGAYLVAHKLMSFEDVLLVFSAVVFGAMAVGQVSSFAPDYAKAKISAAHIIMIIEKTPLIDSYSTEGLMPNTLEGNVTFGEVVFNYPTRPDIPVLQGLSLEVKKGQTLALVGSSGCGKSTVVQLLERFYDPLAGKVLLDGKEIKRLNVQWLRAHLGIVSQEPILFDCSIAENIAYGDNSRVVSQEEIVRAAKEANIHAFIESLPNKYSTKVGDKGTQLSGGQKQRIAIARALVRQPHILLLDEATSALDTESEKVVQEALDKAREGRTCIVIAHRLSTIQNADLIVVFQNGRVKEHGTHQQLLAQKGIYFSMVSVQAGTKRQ

| Activity [1] | Activity [2] | Activity [3] | Activity [4] | Activity [5] | Activity [6] | Activity [7] | Activity [8] | Compound |
| --- | --- | --- | --- | --- | --- | --- | --- | --- |
| substrate [+] | – | – | – | – | – | – | – | C[C@H]1O[C@@H](O[C@H]2[C@@H](O)C[C@H](O[C@H]3[C@@H](O)C[C@H](O[C@H]4CC[C@@]5(C)[C@H](CC[C@@H]6[C@@H]5C[C@@H](O)[C@]5(C)[C@@H](C7=CC(=O)OC7)CC[C@]65O)C4)O[C@@H]3C)O[C@@H]2C)C[C@H](O)[C@@H]1O [DIGOXIN] |
| – | substrate [+] | substrate [+] | substrate [+] | substrate [+] | substrate [+] | substrate [+] | substrate [+] | C=C[C@H]1C[N@@]2CC[C@H]1C[C@@H]2[C@@H](O)c1ccnc2ccc(OC)cc12 [QUINIDINE] |
